Measured values: article PMC3479139, “Diverse Small Molecule Inhibitors of Human Apurinic/Apyrimidinic Endonuclease APE1 Identified from a Screen of a Large Public Collection” (PLoS ONE, 2012)

Columns and labels:
[1] = biological target: T1, APE1 (Homo sapiens, UniProt P27695); assay: Fluorogenic kinetic qHTS APE1 incision assay (primary screen and retest of cherrypicked samples); assay type: biochemical;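 also: purified APE1 cleaving a fluorophore/dark-quencher labelled 17-mer duplex DNA bearing a tetrahydrofuran AP site, fluorescence rise followed kinetically over the first 2 min, inhibition normalized to controls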
T1 construct: made in house
T1 sequence (P27695 whole entry): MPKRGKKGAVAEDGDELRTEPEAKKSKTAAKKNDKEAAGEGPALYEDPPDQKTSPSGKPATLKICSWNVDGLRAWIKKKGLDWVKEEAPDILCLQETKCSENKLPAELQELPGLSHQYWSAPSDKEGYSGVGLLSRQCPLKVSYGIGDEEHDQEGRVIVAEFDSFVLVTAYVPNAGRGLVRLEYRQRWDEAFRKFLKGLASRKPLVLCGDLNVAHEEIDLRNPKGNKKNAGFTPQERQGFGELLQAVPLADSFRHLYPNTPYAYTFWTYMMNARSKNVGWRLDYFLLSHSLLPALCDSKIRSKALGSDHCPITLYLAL

[2] = biological target: T1, APE1; assay: Gel-based radiotracer (32P) APE1 incision assay; assay type: biochemical; set-up: concentration or dose not given beside the values; conditions: percent incision shown; entries 1-112;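 also: APE1 incision reactions ran 5 min at 37 °C, with cleaved product and intact substrate resolved electrophoretically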
[3] = biological target: T1, APE1; assay: Fluorescence polarization (FP) displacement assay of APE1 binding to AP-DNA probe; conditions: read-out: FP IC50;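 also: TAMRA 5′-labeled duplex DNA with THF abasic site (5 nM) and APE1 (20 nM), Mg2+-free buffer, 15 min at room temperature, inhibition seen as lowered polarization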
Procedure: Double-stranded oligodeoxynucleotide containing tetrahydrofuran (THF) abasic site labeled with TAMRA at the 5′-end was used as the labeled binding probe. Inhibition of APE1 binding to labeled probe was detected by a decrease in the fluorescence polarization (FP) of the fluorophore. Briefly, 4 µL mixture of 20 nM APE1 and 5 nM probe contained in the enzymatic assay buffer from which Mg^2+ was omitted, was dispensed into 1536-well Greiner black solid bottom plates. Compounds (23 nL) were transferred via pintool, and after a 15-minute incubation at room temperature, fluorescence polarization was measured in a ViewLux High-throughput CCD imager (480 nm excitation and 540 nm emission) to determine the degree of probe displacement caused by the test compounds.

[4] = biological target: double-stranded 17-mer DNA fragment; assay: ThO (Thiazole Orange) DNA displacement assay; assay type: binding; conditions: read-out: ThO-DNA binding IC50;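 also: miniaturized displacement of the intercalating dye from unlabeled duplex DNA, used to flag nonspecific DNA binders, chiefly intercalators, groove binders may be missed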
[5] = biological target: T2, E. coli Endo IV (Escherichia coli, UniProt P0A6C1); assay: E. coli Endo IV profiling counterscreen; assay type: biochemical; conditions: read-out: EndoIV IC50;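 also: selectivity counterscreen of candidate APE1 inhibitors against the bacterial endonuclease Endo IV, run in the same assay format as the primary APE1 high-throughput screen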
T2 construct: made in house
From the text: In order to screen out nonselective compounds, such as non-specific DNA binders and inhibitors of related enzymes, we used a miniaturized ThO DNA displacement assay and a counterscreen against the bacterial endonuclease E. coli Endo IV, respectively, following the previously published protocols [21].
To probe the selectivity of the candidate APE1 inhibitors, we tested them against E. coli EndoIV [36], employing the same assay as used in the HTS.

[6] = test system: HeLa cells; assay: MMS potentiation assay (CellTiter Glo viability); assay type: cell-based, human; set-up: key: N.A., no activity observed; P, positive; I, inconclusive; N.T., not tested; conditions: for MMS Assay: potentiation of the genotoxic effect of methylmethane sulfonate
Procedure: HeLa cells were plated at 6000 cells/well in DMEM culture medium containing 10% FBS into white solid bottom 384-well cell culture plates. The plates were incubated at 37°C overnight for cell attachment, followed by media replacement. The fresh medium contained serial dilutions of compounds of interest in the presence (0.4 mM final) or absence of MMS. The plates were incubated for 24 h at 37°C. Cell viability was determined by luminescence detection after an addition of 15 µL of CellTiter Glo reagent (Promega, Madison, WI). Percent viability was calculated for each concentration of compound tested in duplicate by relating the corresponding luminescence to that of a negative DMSO vehicle control. MMS potentiation trends were defined as follows: negative (-), if cell viability in the compound-plus-MMS treatment was the same as that of the DMSO-plus-MMS control (overlapping dose-response curves); inconclusive (I), if the shift in the cell viability dose-response upon MMS inclusion relative to compound-alone was less than 30%; and positive (P), if the difference between the compound-plus-MMS and compound-alone curves was at least 30%, and maintained within at least a two-fold compound concentration span.
To examine the biological prospects of the top compounds, we tested their ability to inhibit APE1 DNA repair activity by assessing enhancement of MMS toxicity in mammalian cells. MMS creates methylated-base damage to genomic DNA, which, when excised by an alkylpurine DNA glycosylase, results in a high number of cytotoxic AP sites. We compared the viability of HeLa cells exposed to a dilution series of inhibitor alone to a combination of a fixed MMS concentration with the same dilution series of inhibitor by using a standard CellTiter Glo luminescence assay. This technique measures the number of viable cells in culture based on quantitation of the ATP present, which signals the presence of metabolically active cells. The assay was further optimized for 384-well plates, allowing a high-throughput testing of multiple hits at multiple concentrations, a scope of investigation previously impossible due to the very low throughput of the traditionally applied colony formation assay.
From the 223 compounds found positive in the gel-based APE1 assays, exclusion of the most promiscuous hits, that is, those that were both DNA binders and EndoIV-inhibitory, yielded a set of 170 compounds (Figure 3). This shortened group of hits was tested in the cell-based potentiation assay for their ability to dose-dependently enhance sensitivity of HeLa cells to the alkylating agent MMS.

[7] = biological target: T1, APE1; assay: Gel-based APE1 incision assay with fluorescence (TAMRA) detection; assay type: biochemical
[8] = initial quantitative high-throughput screen, read-out: APE1 qHTS IC50
[9] = retest of cherrypicked sample, read-out: APE1 Retest IC50
[10] = estimated IC50, fluorophore detection, entries 113-223, read-out: F-PAGE Assay IC50
[11] = entries 113-223: fluorophore detection, estimated IC50, read-out: Gel-based electrophoretic separation assay with fluorophore detection, estimated IC50 (column headed Radiotracer Assay (%Activity))

Structure (SMILES) | IC50 [1, 8] [µM] | IC50 [1, 9] [µM] | Radiotracer Assay (%Activity) [2] [%] | IC50 [3] [µM] | IC50 [4] [µM] | IC50 [5] [µM] | MMS Assay [6] | IC50 [7, 10] [µM] | MMS Assay: potentiation of the genotoxic effect of methylmethane sulfonate [6] | IC50 [7, 11] [µM]
COc1ccc2c(c1)c(=O)oc1cc(OCC(=O)N3CCC(C)CC3)ccc12 [MLS000088142] | 15.6 | 5 | 29 | 14.1 | > 57 | > 57 | I |  |  | 
CC(C)C(=O)NC(C)C(c1cccs1)N1CCN(c2ccccc2)CC1 (stereo not shown) [MLS000092582] |  |  |  |  | > 57 | > 57 | I |  |  | 
O=C(O)c1ccccc1-c1ccc(/C=c2\sc3nc4cc(Br)cnc4n3c2=O)o1 [MLS000107874] | 22.4 | 8.9 | 11 | 17.8 | > 57 | > 57 | I |  |  | 
O=C(COC(=O)/C=C/c1ccco1)Nc1ncc(Cl)cc1Cl [MLS000391557] |  |  |  |  | > 57 | > 57 | I |  |  | 
CC(=O)Nc1sc2c(c1-c1nc3ccccc3s1)CCN(C(C)C)C2 [MLS000419194] | 14.1 | 3.9 | 2 | 2.5 | > 57 |  | P |  |  | 
O=C1CC(=O)N(Cc2ccco2)C(=S)N1 [MLS000535286] | 11.2 | 12.6 | 28 | > 57 | > 57 | > 57 | I |  |  | 
CC(C(=O)O)N1C(=O)/C(=C/C=C/c2ccco2)SC1=S (stereo not shown) [MLS000551724] | 2.8 | 0.9 | 9 | 12.6 | > 57 | > 57 | I |  |  | 
O=C(O[C@@H]1OC2COC(=O)c3cc(O)c(O)c(O)c3-c3c(cc(O)c(O)c3O)C(=O)O[C@@H]([C@H]1O)[C@@H]2O)c1cc(O)c(O)c(O)c1 [MLS000563483] | 0.07 | 0.05 | 16 | > 57 | > 57 | > 57 | I |  |  | 
Cn1cccc1/C=C1\C(=O)NC(=O)N(Cc2ccco2)C1=O [MLS000677191] | 14.1 | 4.5 | 5 | > 57 | > 57 | > 57 | I |  |  | 
COc1ccc(CN2C(=O)NC(=O)/C(=C\c3ccco3)C2=O)cc1 [MLS000723827] | 22.4 | 14.1 | 18 | > 57 | > 57 | > 57 | I |  |  | 
COc1ccc(CCn2c(O)cc3nn(-c4nc5ccccc5s4)c(=O)c-3c2C)cc1 [MLS000763226] | 31.6 | 15.8 | 20 | > 57 | 10 | > 57 | I |  |  | 
O=C(O)c1cccc(-n2cccc2/C=C/[N+](=O)[O-])c1 [MLS000778420] | 3.9 | 4.5 | 46 | > 57 | > 57 | > 57 | P |  |  | 
O=C1/C(=C/C=C/c2ccco2)SC(=S)N1NS(=O)(=O)c1ccccc1 [MLS000778639] | 2.5 | 3.5 | 6 | > 57 | > 57 | > 57 | I |  |  | 
COc1c(-c2ccc(O)cc2)oc2cc(O)cc(O)c2c1=O [MLS000877008] | 1.1 | 2.8 | 43 | > 57 | > 57 | > 57 | I |  |  | 
CC1CCc2c(sc(NC(=O)/C=C/c3cccs3)c2C(=O)O)C1 (stereo not shown) [MLS000974674] | 11.9 | 45.7 |  | > 57 | 36.3 | > 57 | P | 6.3 |  | 
Cc1ccccc1CN1CCN(Cc2cc(=O)c3ccccc3[nH]2)CC1CCO (stereo not shown) [MLS001000225] |  |  |  |  | > 57 | > 57 |  |  | I | 
COc1ccc(C(=O)Nc2ccnn2C2CCN(Cc3ccc4nonc4c3)CC2)cc1 [MLS001090278] | 5.3 | 10.2 |  | > 57 | > 57 | > 57 |  |  | I | 10
CCc1cc(CNC(=O)c2ccc(OC3CCN(CCc4ccccc4)CC3)cc2)on1 [MLS001105846] | 11.9 | 6.5 |  | 32.4 | > 57 | > 57 | P | 4.5 |  | 
O=C1COc2ccc(C(=O)COC(=O)/C=C/c3ccc(Br)o3)cc2N1 [MLS001142042] | 4.7 | 14.5 |  | > 57 | > 57 | > 57 | I | 2.2 |  | 
N#C/C(=C\c1ccc(O)c(O)c1)C(=O)Nc1cccc2ncccc12 [MLS001173932] | 3 | 5.1 |  | > 57 | 2 | > 57 | I | 0.6 |  | 
O=C(O)C1Nc2ccc(Br)cc2C2C=CCC12 (stereo not shown) [MLS001209038] | 13.4 | 18.2 |  | > 57 | 25.7 | > 57 | I | 6.3 |  | 
Cc1cccn2c(=O)c3cc(C(=O)NCc4ccco4)c(=N)n(C4CCCCC4)c3nc12 [MLS001217741] | 16.8 | 12.9 |  | > 57 | > 57 | > 57 |  |  | P | 22.4
CC(=O)Oc1cc(C(=O)OCC(=O)N2CCc3ccccc3C2)cc(OC(C)=O)c1OC(C)=O [MLS002252117] | 5.3 | 11.5 |  | > 57 | > 57 | > 57 | I | 4.5 |  | 
